In the NIST ThermoML archive (doi:10.1021/je700297c) one finds activity coefficient data, which are given here for 42 compounds.

The nature of this data set: activity coefficient (dimensionless); of the first substance listed, at infinite dilution; xn = mol fraction of the nth substance listed. The conditions noted are these: Liquid, Chromatography, x1 = 0.

Numbers after ± are expanded uncertainties.

For `CCCCCC` [hexane] + CCCCn1cc[n+](C)c1.F[B-](F)(F)F, the activity coefficient runs as follows: (298 K) 65.9 ± 4.5; (323 K) 50.6 ± 3.5.

For the compound `CCCCCCC` [heptane] + CCCCn1cc[n+](C)c1.F[B-](F)(F)F, the activity coefficient by setting is: (298 K) 83.5 ± 5.7; (323 K) 70.3 ± 4.8.

Take `CCCCCCCC` [octane] + CCCCCCCCCCCCCCCC(=O)[O-].CCCCn1cc[n+](C)c1: the activity coefficient (333 K) came to 1.6 ± 0.1.

On to `CCCCCC` [hexane] + CCCCCCCCCCCCCCCC(=O)[O-].CCCCn1cc[n+](C)c1, for which the activity coefficient (333 K) was 1.3 ± 0.1.

With `CCCCCCCC` [octane] + C[n+]1ccn(CCCC#N)c1.O=S(=O)([N-]S(=O)(=O)C(F)(F)F)C(F)(F)F, the activity coefficient was determined as 191 ± 13 (303 K) and 159 ± 11 (323 K).

With `CCCCCCCC` [octane] + CCCCCCCC[n+]1ccn(C)c1.F[B-](F)(F)F, the activity coefficient was 16.1 ± 1.1 (298 K) and 11 ± 0.8 (323 K).

In the case of `C1CCOC1` [tetrahydrofuran] + CCCCCCCC[n+]1ccn(C)c1.F[B-](F)(F)F, the activity coefficient was determined as 0.7 ± 0.1 (298 K) and 0.6 ± 0.1 (323 K).

Turning to `C1CCCCC1` [cyclohexane] + CCCCCCCC[n+]1ccn(C)c1.F[B-](F)(F)F, the activity coefficient (298 K) is 5.3 ± 0.4 and the activity coefficient (323 K) is 3.9 ± 0.3.

Regarding `CCO` [ethanol] + C[n+]1ccn(CCCC#N)c1.N#CN=C=[N-], the activity coefficient was 0.5 ± 0.1 (303 K) and 0.4 ± 0.1 (323 K).

For the compound `CCCCCCCC` [octane] + CCCCCCCCCCCCCCCCCC(=O)[O-].CCCCn1cc[n+](C)c1, the activity coefficient by setting is: (323 K) 2.1 ± 0.2; (333 K) 1.6 ± 0.1.

On to `Cc1ccccc1` [toluene] + CCCCCCCCCCCCCCCCCC(=O)[O-].CCCCn1cc[n+](C)c1, for which the activity coefficient runs as follows: (323 K) 0.8 ± 0.1; (333 K) 0.8 ± 0.1.

On to `CO` [methanol] + CCCCCCCCCCCCCCCCCC(=O)[O-].CCCCn1cc[n+](C)c1, for which the activity coefficient runs as follows: (323 K) 0.3 ± 0.1; (333 K) 0.3 ± 0.1.

For `C1CCOC1` [tetrahydrofuran] + C[n+]1ccn(CCCC#N)c1.N#CN=C=[N-], the activity coefficient is, setting by setting: (303 K) 1.6 ± 0.1; (323 K) 1.5 ± 0.1.

Consider `CCCCCCC` [heptane] + C[n+]1ccn(CCCC#N)c1.N#CN=C=[N-], for which the activity coefficient is, setting by setting: (303 K) 231 ± 16; (323 K) 197 ± 14.

`CO` [methanol] + CCCCCCCCCCCCCCCC(=O)[O-].CCCCn1cc[n+](C)c1: the activity coefficient (333 K) turned out to be 0.3 ± 0.1.

In the case of `Cc1ccccc1` [toluene] + C[n+]1ccn(CCCC#N)c1.O=S(=O)([N-]S(=O)(=O)C(F)(F)F)C(F)(F)F, the activity coefficient came out at 3.3 ± 0.2 (303 K) and 3.1 ± 0.2 (323 K).

`C1CCCCC1` [cyclohexane] + CCCCCCCCCCCCCCCCCC(=O)[O-].CCCCn1cc[n+](C)c1: the activity coefficient came to 1.1 ± 0.1 (323 K) and 1.2 ± 0.1 (333 K).

On to `Cc1ccccc1` [toluene] + CCCCn1cc[n+](C)c1.F[B-](F)(F)F, for which the activity coefficient was 2.5 ± 0.2 (298 K) and 2.4 ± 0.2 (323 K).

In the case of `c1ccsc1` [thiophene] + CCCCn1cc[n+](C)c1.F[B-](F)(F)F, the activity coefficient turned out to be 1.7 ± 0.1 (298 K) and 1.5 ± 0.1 (323 K).

As for `CO` [methanol] + C[n+]1ccn(CCCC#N)c1.O=S(=O)([N-]S(=O)(=O)C(F)(F)F)C(F)(F)F, the activity coefficient by setting is: (303 K) 1.1 ± 0.1; (323 K) 1 ± 0.1.

As to `c1ccccc1` [benzene] + CCCC[n+]1ccn(C)c1.O=S(=O)([N-]S(=O)(=O)C(F)(F)F)C(F)(F)F, for the setting “323 K”, the activity coefficient stood at 0.8 ± 0.1.

On to `CO` [methanol] + CCCCn1cc[n+](C)c1.F[B-](F)(F)F, for which the activity coefficient was 0.8 ± 0.1 (298 K) and 0.7 ± 0.1 (323 K).

As to `C1CCCCC1` [cyclohexane] + C[n+]1ccn(CCCC#N)c1.N#CN=C=[N-], the activity coefficient was 81.7 ± 5.6 (303 K) and 58.9 ± 4 (323 K).

Turning to `CCCCCCC` [heptane] + CCCCCCCCCCCCCCCC(=O)[O-].CCCCn1cc[n+](C)c1, the activity coefficient (333 K) amounted to 1.4 ± 0.1.

On to `Cc1ccccc1` [toluene] + C[n+]1ccn(CCCC#N)c1.N#CN=C=[N-], for which the activity coefficient by setting is: (303 K) 4.3 ± 0.3; (323 K) 4 ± 0.3.

As for `c1ccccc1` [benzene] + CCCCn1cc[n+](C)c1.F[B-](F)(F)F, the activity coefficient stood at 1.5 ± 0.1 (298 K) and 1.5 ± 0.1 (323 K).

In the case of `CCOC(C)=O` [ethyl acetate] + CCCCCCCCCCCCCCCC(=O)[O-].CCCCn1cc[n+](C)c1, the activity coefficient (333 K) was 1 ± 0.1.

For `CCOC(C)=O` [ethyl acetate] + CCCCCCCCCCCCCCCCCC(=O)[O-].CCCCn1cc[n+](C)c1, the activity coefficient by setting is: (323 K) 1.1 ± 0.1; (333 K) 1.1 ± 0.1.

On to `CCCCCCC` [heptane] + CCCCCCCC[n+]1ccn(C)c1.F[B-](F)(F)F, for which the activity coefficient (298 K) turned out to be 11 ± 0.8 and the activity coefficient (323 K) worked out at 8.4 ± 0.6.

In the case of `CC1CCCCC1` [methylcyclohexane] + C[n+]1ccn(CCCC#N)c1.O=S(=O)([N-]S(=O)(=O)C(F)(F)F)C(F)(F)F, the activity coefficient (303 K) came out at 75.1 ± 5.1 and the activity coefficient (323 K) is 66.2 ± 4.5.

Consider `C=CCCCC` [hex-1-ene] + CCCCCCCCCCCCCCCC(=O)[O-].CCCCn1cc[n+](C)c1, for which, where the note is “333 K”, the activity coefficient was 1.1 ± 0.1.

Turning to `C=CCCCCCC` [oct-1-ene] + CCCCCCCC[n+]1ccn(C)c1.F[B-](F)(F)F, the activity coefficient (298 K) is 7.8 ± 0.5 and the activity coefficient (323 K) amounted to 6.6 ± 0.5.

`CCCCCC` [hexane] + CCCCCCCCCCCCCCCCCC(=O)[O-].CCCCn1cc[n+](C)c1: the activity coefficient is 1.7 ± 0.1 (323 K) and 1.4 ± 0.1 (333 K).

With `CC1CCCCC1` [methylcyclohexane] + CCCCCCCCCCCCCCCCCC(=O)[O-].CCCCn1cc[n+](C)c1, the activity coefficient reads like this: (323 K) 1.3 ± 0.1; (333 K) 1.3 ± 0.1.

For `C=CCCCCCC` [oct-1-ene] + C[n+]1ccn(CCCC#N)c1.N#CN=C=[N-], the activity coefficient (303 K) came to 142 ± 9.8 and the activity coefficient (323 K) stood at 136 ± 9.3.

On to `CC1CCCCC1` [methylcyclohexane] + CCCCCCCC[n+]1ccn(C)c1.F[B-](F)(F)F, for which the activity coefficient (298 K) came to 6.7 ± 0.5 and the activity coefficient (323 K) was 5.3 ± 0.4.

For the compound `c1ccsc1` [thiophene] + C[n+]1ccn(CCCC#N)c1.O=S(=O)([N-]S(=O)(=O)C(F)(F)F)C(F)(F)F, the activity coefficient (303 K) is 1.5 ± 0.1 and the activity coefficient (323 K) amounted to 1.4 ± 0.1.

As for `CCOC(C)=O` [ethyl acetate] + CCCCn1cc[n+](C)c1.F[B-](F)(F)F, the activity coefficient (298 K) was 1.8 ± 0.1 and the activity coefficient (323 K) is 1.7 ± 0.1.

Turning to `C1CCOC1` [tetrahydrofuran] + CCCCCCCCCCCCCCCC(=O)[O-].CCCCn1cc[n+](C)c1, the activity coefficient (333 K) was determined as 0.6 ± 0.1.

Turning to `CCOC(C)=O` [ethyl acetate] + C[n+]1ccn(CCCC#N)c1.N#CN=C=[N-], the activity coefficient reads like this: (303 K) 2.8 ± 0.2; (323 K) 2.7 ± 0.2.

As for `C=CCCCCCC` [oct-1-ene] + CCCCCCCCCCCCCCCC(=O)[O-].CCCCn1cc[n+](C)c1, under “333 K”, the activity coefficient worked out at 1.4 ± 0.1.

Regarding `C1CCOC1` [tetrahydrofuran] + CCCC[n+]1ccn(C)c1.O=S(=O)([N-]S(=O)(=O)C(F)(F)F)C(F)(F)F, the activity coefficient (323 K) is 0.4 ± 0.1.
